We go through 5 molecules from article PMC11901561, “Free Radical Scavenging Activity and Inhibition of Enzyme-Catalyzed Oxidation by trans-aryl-Palladium Complexes” (Molecules, 2025).

SMILES strings stand for the structures. Like-named read-outs stand apart in the source and are kept apart here.

The conditions of assay [1]: cited from earlier work.
Assay [2] can be described thus: Antiradical efficiency (kinetic study via DPPH assay). The conditions noted are these: for AE (antiradical efficiency): AE = 1/EC50.TEC50, DPPH; for Classification of antiradical efficiency: according to Sanchez-Moreno, from AE value; for TEC50: time needed to reach the steady state at the EC50 concentration, DPPH. Here is the method: The reaction between potential antioxidants and the oxidized substrate requires a steady state which will depend on several parameters, such as the reaction time. The time needed to reach the steady state, at the concentration corresponding to EC50, is more and more frequently used and can be defined as TEC50. In brief, TEC50 was determined by plotting the recorded absorbance during the period for the EC50 concentration for the considered antioxidant compound. […] The antiradical efficiency of compounds and their classification are considered according to the work of Sanchez-Moreno [69].

Assay [3] addresses T1, horseradish peroxidase (HRP) (Armoracia rusticana, UniProt P00433).
T1 sequence (P00433 31-338 limits assumed): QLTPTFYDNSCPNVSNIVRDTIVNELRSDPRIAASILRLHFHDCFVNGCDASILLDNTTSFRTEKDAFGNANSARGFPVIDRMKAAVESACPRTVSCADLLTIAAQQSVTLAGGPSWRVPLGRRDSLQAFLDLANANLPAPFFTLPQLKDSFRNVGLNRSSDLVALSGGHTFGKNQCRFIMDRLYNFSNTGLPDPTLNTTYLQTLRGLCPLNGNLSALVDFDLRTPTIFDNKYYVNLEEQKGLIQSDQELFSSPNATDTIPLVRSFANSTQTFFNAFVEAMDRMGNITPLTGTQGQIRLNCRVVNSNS
The assay can be described thus: biochemical. The assay is classed as biochemical. The conditions noted are these: for EC50: HRP-H2O2/L-012 system, pH 7.5, 37 °C, 30 min, read-out: EC50 chemiluminescence assay; for Effect on chemiluminescence at lowest concentrations: 1, 5, and 10 µM, HRP-H2O2/L-012. The method, then:
To investigate the effect of selected palladium (II)-based complexes on the peroxidase (HRP)-catalyzed oxidation of the chemiluminescent probe (L-012), in the presence of hydrogen peroxide (H2O2), the chemiluminescence technique was used. Briefly, plate-reader-based luminescence measurements were performed in white 96-well plates using a Fluoroskan Ascent FL microplate reader (Thermo Labsystems, Vantaa, Finland), with the temperature set at 37 °C. To 5 µL of a stock solution of HRP (1 mg/mL) in phosphate buffer (pH = 7.5) per well, we successively added 10 µL of L-012 (aqueous solution, 0.84 mmoL) and 2 µL of tested compound in 163 µL of buffer solution. The reaction was triggered by adding 20 µL hydrogen peroxide (0.19 µM) to reach the final volume of 200 µL. The light emission, produced from oxidation of L-012 by HRP/H2O2 system, in the presence or absence of the tested palladium complex, was recorded in kinetic mode for 30 min. Inhibition of the emitted light due to tested complexes was associated with higher activity. The following formula was applied to calculate the inhibiting activity of complexes towards the oxidation of L-012 catalyzed by the HRP/H2O2 system:% inhibition = (L control − L Sample) x 100/L Control
(§1) Results were expressed as mean values ± standard deviation (SD). All measurements were replicated three times. EC50 values were calculated with GraphPad Prism 6.0 (GraphPad Software, San Diego, CA, USA) under the application of the function “log (inhibitor) versus normalized response-variable slope” after converting the concentrations into their decimal logarithm. The results were analyzed using Student’s test and a two-way analysis of variance (ANOVA), and a multiple comparison of all data was performed using Tukey’s multiple comparisons test. p < 0.0001 was considered significant.

Assay [4] in a line: DPPH radical scavenging test (spectrophotometric, 517 nm). The conditions noted are these: for EC50: concentration scavenging 50% of DPPH, 90% MeOH, 30 min, mean ± SD; for EC50 (g Antioxidant/kg DPPH°): EC50 expressed as weight of antioxidant per kg of DPPH radical. The method, then:
Radical scavenging capacity, as an indicator of the antioxidant capacity of compounds against 1,1-diphenyl-2-picrylhydrazyl (DPPH) free radicals and 2,2-azinobis (3-ethyl- enzothiazoline-6-sulfonic acid), ABTS•+ radical cations, was determined using a spectrophotometric assay. Antiradical capacity analysis was performed either on pure MeOH for ABTS or the mixture of MeOH/distilled water (90:10 v/v) for DPPH. For both ABTS and DPPH assays, the stock solutions of complexes were prepared in DMSO. Quercetin was used as an antioxidant standard in the DPPH and ABTS•+ scavenging tests. […] EC50 values were estimated using nonlinear regression. A lower EC50 value indicates higher antiradical activity.
The DPPH assay was performed according to the method developed by Brand-Williams et al. slightly modified. A solution of 1 mM DPPH in 90% (v/v) methanol was stirred for 40 min. The absorbance of the solution was adjusted to 0.650 ± 0.020 at 517 nm using fresh 90% (v/v) methanol. Then, 0.02 mL of quercetin taken as a standard or sample was mixed with 1.98 mL of DPPH solution and incubated for 30 min in the dark covered with aluminum foil. When reacting with an antioxidant, the DPPH• radical is converted into DPPH, and its color changes from purple to yellow. The antioxidant effect may be easily evaluated by observing the decrease in visible absorption. The absorbance decrease was monitored at 517 nm after 30 min of incubation with a Hewlett Packard 8453 spectrophotometer. The control consisted of 0.02 mL of DMSO in 1.98 mL of DPPH solution. A similar formula (Equation (1)) was applied to determine the DPPH radical scavenging activity.
as §1
For orientation: Loss of DPPH colour is used to gauge radical scavenging.

Assay [5] is described as follows: ABTS radical scavenging test (spectrophotometric, 734 nm). The conditions noted are these: for EC50: concentration scavenging 50% of ABTS•+, MeOH, 30 min, mean ± SD. Here is the method: Radical scavenging capacity, as an indicator of the antioxidant capacity of compounds against 1,1-diphenyl-2-picrylhydrazyl (DPPH) free radicals and 2,2-azinobis (3-ethyl- enzothiazoline-6-sulfonic acid), ABTS•+ radical cations, was determined using a spectrophotometric assay. Antiradical capacity analysis was performed either on pure MeOH for ABTS or the mixture of MeOH/distilled water (90:10 v/v) for DPPH. For both ABTS and DPPH assays, the stock solutions of complexes were prepared in DMSO. Quercetin was used as an antioxidant standard in the DPPH and ABTS•+ scavenging tests. EC50 is defined as the concentration of compound (µM) required to scavenge 50% of ABTS•+ or DPPH radicals. EC50 values were estimated using nonlinear regression. A lower EC50 value indicates higher antiradical activity.
The ABTS assay was based on the method described by Re et al.. For the generation of ABTS•+ radicals, sodium persulfate (2.45 mM) aqueous solution was mixed with ABTS (7 mM) and incubated overnight in the dark to obtain a dark colored solution. The stock solution of ABTS•+ was then diluted by adding pure methanol (100%) to obtain an absorbance of 0.70 (±0.02) at 734 nm at 30 °C. An aliquot of 0.02 mL of tested compound was added to 1.98 mL of ABTS•+, and the decrease in absorbance was monitored at 734 nm after 30 min [80]. During this reaction, the blue green ABTS radical cation is converted back into its colorless neutral form in the presence of the potential antioxidant molecule. A control consisted of 0.02 mL of DMSO in 1.98 mL of ABTS•+ solution. The reducing capacity was determined according to the following formula:% inhibition = (A control − A Sample) × 100/A Control (1)
as §1

Details of assay [6]: method as in earlier work. The note with it: values reported in the literature ref 60; read-out: EC50 ABTS, literature values; cited from earlier work.

Broadly, the IC50 is the point on the concentration scale where inhibition reaches its midpoint. Take `Oc1cc(O)c2c(c1)O[C@H](c1ccc(O)c(O)c1)[C@H](O)C2` [epicatechin]: the IC50 in assay [1] (flavonoid comparison ref 63, read-out: IC50 DPPH, literature value) is 15.7 µM.
The term EC50 denotes the midpoint of the concentration-response curve. In the case of `COc1cc[c]([Pd@SP2]([Br])([PH](c2ccccc2)(c2ccccc2)c2ccccc2)[PH](c2ccccc2)(c2ccccc2)c2ccccc2)cc1` [Complex 2, Trans-Bromo(4-methoxyphenyl)bis(triphenylphosphine)Palladium], in assay [2], the “AE (antiradical efficiency)” value is given as 0.2155 ×10^−3, the “Classification of antiradical efficiency” value is recorded as “Low” and the TEC50 turned out to be 16 min. Besides, the EC50 in assay [3] is 1.48 ± 0.71 µM. This molecule registered an EC50 in assay [4] of 7.09 ± 0.94 µM. In assay [5], the EC50 turned out to be 7.01 ± 0.98 µM.
With `CC(=O)Oc1cc[c]([Pd@SP2]([I])([PH](c2ccccc2)(c2ccccc2)c2ccccc2)[PH](c2ccccc2)(c2ccccc2)c2ccccc2)cc1` [Complex 4, Trans-Iodo(4-acethoxyphenyl)bis(triphenylphosphine)Palladium], in assay [2], the “AE (antiradical efficiency)” value is recorded as 0.0002 ×10^−3, the “Classification of antiradical efficiency” value is listed as “Low” and the TEC50 turned out to be 78 min. Also, in assay [3], the “Effect on chemiluminescence at lowest concentrations” value (shortened to “Effect on chemiluminescence”) is “weak effect” and the EC50 is 11.3 ± 3.3 µM. Further, in assay [4], the “EC50 (g Antioxidant/kg DPPH°)” value is listed as 82,194.89 ± 33 g Antioxidant/kg DPPH° and the concentration giving a half-maximal response (EC50) came out at 1840.8 ± 0.44 µM. This molecule also gave an IC50 in assay [4] (value given in text in mM) of 1.84 mM. For the same molecule, the concentration for a half-maximal effect (EC50) in assay [5] is 10.9 ± 0.95 µM.
`[I][Pd]([c]1ccccc1)([PH](c1ccccc1)(c1ccccc1)c1ccccc1)[PH](c1ccccc1)(c1ccccc1)c1ccccc1` [Complex 7, Trans-Iodo(phenyl)bis(triphenylphosphine)Palladium]: in assay [2], the “AE (antiradical efficiency)” value is reported as 0.0081 ×10^−3, the “Classification of antiradical efficiency” value is “Low” and the TEC50 is given as 66 min. In addition, in assay [3], the “Effect on chemiluminescence” value was “weak effect” and the half-maximal effective concentration (EC50) is 67 ± 20.1 µM. In addition, in assay [4], the “EC50 (g Antioxidant/kg DPPH°)” value came out at 1882.11 ± 37 g Antioxidant/kg DPPH° and a half-maximal effect (EC50) was put at 45.1 ± 0.95 µM. The “Activity against the ABTS radical” value in assay [5] (100 µM) was “good activity”. Further, the response in assay [5] was half-maximal at 6.14 ± 0.94 µM (EC50).
As for `O=c1c(O)c(-c2ccc(O)c(O)c2)oc2cc(O)cc(O)c12` [Qrcn, Quercetin, reference compound], in assay [2], the “AE (antiradical efficiency)” value is reported as 0.1873 ×10^−3, the “Classification of antiradical efficiency” value is given as “Low” and the TEC50 is recorded as 61 min. Besides, in assay [1], the “EC50 (g antioxidant per Kg of DPPH), literature value” was 84 ± 6 g/kg. For the same molecule, in assay [3], the “Effect on chemiluminescence” value is reported as “weak effect” and the concentration for a half-maximal effect (EC50) is 7.06 ± 2.56 µM. Moreover, in assay [4], the “EC50 (g Antioxidant/kg DPPH°)” value came out at 87.98 ± 15 g Antioxidant/kg DPPH° and the EC50 was 5.79 ± 1 µM. Moreover, the half-maximal effective concentration (EC50) in assay [6] was about 15 µM. The EC50 in assay [5] was found to be 5.56 ± 0.97 µM.
